Assays:
[1] = molecular target: EGFR (Homo sapiens, UniProt P00533); assay: In vitro inhibition of EGFR, Flash Plate or glass-fiber filter technology (C2); assay type: biochemical; set-up: 0.5 μg EGFR-kinase domain/well; settings: EGFR-kinase domain, 5.0 μM unlabeled ATP, read-out: Kinase activity.(C2): pIC50 (converted)
How it was run: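 Two radiometric formats were used, each with 5.0 μM unlabeled ATP, [33P]ATP, 0.5 μg EGFR kinase domain and compounds from 1·10^−10 to 1·10^−6 M. Glass-fiber filter: 25° C for 10 min, pH 7.5, Mn2+/Mg2+, acid-stopped, phosphorimager read. Streptavidin Flash Plate: biotinylated poly(GT), pH 8.0, 30° C for 60 min.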

[2] = tested on: SKOV3 cells; assay: Serum starved proliferation assay on the ovarian carcinoma SKOV3 cells (C3); assay type: cell-based; settings: Homo sapiens, SK-OV-3, 72 h, EGF stimulated (100 ng/ml, 72 hours, serum free) or 72 hours with compounds; MTT cell viability assay; read-out: SKOV3 cell (C3): pIC50 (converted)
How it was run: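 MTT viability read-out in SKOV3 cells after a 24 h pre-incubation in 10% FCS, in one of two formats. EGF-stimulated version: serum-free compound exposure followed by 100 ng/ml EGF (final) for 72 h at 37 °C, 5% CO2. Otherwise, compound alone for 72 h.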

Sequence of EGFR (P00533 712-979 limits assumed): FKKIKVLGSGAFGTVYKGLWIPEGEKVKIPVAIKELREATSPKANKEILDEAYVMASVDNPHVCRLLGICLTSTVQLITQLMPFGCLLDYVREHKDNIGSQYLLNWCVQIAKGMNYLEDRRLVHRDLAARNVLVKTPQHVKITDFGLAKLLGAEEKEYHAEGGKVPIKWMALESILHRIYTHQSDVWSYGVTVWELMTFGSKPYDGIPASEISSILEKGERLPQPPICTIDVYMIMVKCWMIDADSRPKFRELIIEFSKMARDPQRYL

| Structure (SMILES) | IC50 [1] [nM] | IC50 [2] [nM] |
| --- | --- | --- |
| COc1cc2ncnc3c2cc1OCC(=O)N1CC(O)CC1C(=O)NCc1ccc(Cl)cc1N3 (stereo not drawn) [Compound 133, 9,11-ethanediylidenepyrimido[4,5-b]pyrrolo[1,2-i][6,1,9,12]benzoxatriazacyclopentadecine-14,19(5H,13H)-dione, 3-chloro-16,17,18,18a,20,21-hexahydro-17-hydroxy-22-methoxy-] | 1580 | 7940 |
| COc1cc2ncnc3c2cc1OCCCCC(=O)N1CCCC1C(=O)NCc1ccc(Cl)cc1N3 (stereo not drawn) [Compound 134, 4,6-ethanediylidene-8H-pyrimido[4,5-b]pyrrolo[1,2-l][6,1,12,15]benzoxatriazacyclooctadecine-12,17(18H)-dione, 22-chloro-9,10,11,14,15,16,16a,19,24-nonahydro-25-methoxy-] | 398 | 794 |
| COc1cc2ncnc3c2cc1OCCCCC(=O)NC(CC(C)C)C(=O)NCc1ccc(Cl)cc1N3 (stereo not drawn) [Compound 136, 4,6-ethanediylidene-8H-pyrimido[4,5-b][6,1,12,15]benzoxatriazacyclooctadecine-12,15(16H)-dione, 20-chloro-9,10,11,13,14,17,22-heptahydro-23-methoxy-14-(2-methylpropyl)-] | 631 | 251 |
| COc1cc2ncnc3c2cc1OCCCCC(=O)NC(C)(C)C(=O)NCc1ccc(Cl)cc1N3 [Compound 137, 4,6-ethanediylidene-8H-pyrimido[4,5-b][6,1,12,15]benzoxatriazacyclooctadecine-12,15(16H)-dione, 20-chloro-9,10,11,13,14,17,22-heptahydro-23-methoxy-14,14-dimethyl-] | 251 | 251 |
| COc1cc2ncnc3c2cc1OCCCCC(=O)NC(Cc1ccccc1)C(=O)NCc1ccc(Cl)cc1N3 (stereo not drawn) [Compound 138, 4,6-ethanediylidene-8H-pyrimido[4,5-b][6,1,12,15]benzoxatriazacyclooctadecine-12,15(16H)-dione, 20-chloro-9,10,11,13,14,17,22-heptahydro-23-methoxy-14-(phenylmethyl)-] | 2000 | 631 |
| COc1cc2ncnc3c2cc1OCC(=O)N1CCCC1C(=O)NCCc1ccc(Cl)cc1N3 (stereo not drawn) [Compound 140, 1,21-ethanediylidene-5H-pyrimido[4,5-b]pyrrolo[1,2-i][6,1,9,12]benzoxatriazacyclohexadecine-13,18(19H)-dione, 7-chloro-10,11,12,13a,14,15,16-heptahydro-23-methoxy-] | 200 | 200 |
| COc1cc2ncnc3c2cc1OCCCC(=O)NC(CC(C)C)C(=O)NCc1ccc(Cl)cc1N3 (stereo not drawn) [Compound 143, 4,6-ethanediylidenepyrimido[4,5-b][6,1,11,14]benzoxatriazacycloheptadecine-11,14(8H,15H)-dione, 19-chloro-9,10,12,13,16,21-hexahydro-22-methoxy-13-(2-methylpropyl)-] | 501 | 200 |
| COc1cc2ncnc3c2cc1OCCCC(=O)NC(Cc1ccccc1)C(=O)NCc1ccc(Cl)cc1N3 (stereo not drawn) [Compound 145, 4,6-ethanediylidenepyrimido[4,5-b][6,1,11,14]benzoxatriazacycloheptadecine-11,14(8H,15H)-dione, 19-chloro-9,10,12,13,16,21-hexahydro-22-methoxy-13-(phenylmethyl)-] | 200 | 251 |
| COc1cc2ncnc3c2cc1OCCCCC(=O)NC(C(C)O)C(=O)NCc1ccc(Cl)cc1N3 (stereo not drawn) [Compound 147, 4,6-ethanediylidene-8H-pyrimido[4,5-b][6,1,12,15]benzoxatriazacyclooctadecine-12,15(16H)-dione, 20-chloro-9,10,11,13,14,17,22-heptahydro-14-(1-hydroxyethyl)-23-methoxy-] | 126 | 251 |
| COc1cc2ncnc3c2cc1OCC(=O)N1CC(O)CC1C(=O)NCCc1ccc(Cl)cc1N3 (stereo not drawn) [Compound 149, 1,21-ethanediylidene-5H-pyrimido[4,5-b]pyrrolo[1,2-i][6,1,9,12]benzoxatriazacyclohexadecine-13,18(19H)-dione, 7-chloro-10,11,12,13a,14,15,16-heptahydro-15-hydroxy-23-methoxy-] | 126 | 1580 |

Other lines, results leading:

| IC50 [1] [nM] | IC50 [2] [nM] | Structure (SMILES) |
| --- | --- | --- |
| 3980 | 1000 | COc1cc2ncnc3c2cc1OCC(=O)NC(C)(C)C(=O)NCCc1ccc(Cl)cc1N3 [Compound 135, 4,6-ethanediylidene-8H-pyrimido[4,5-b][6,1,9,12]benzoxatriazacyclohexadecine-9,12-dione, 18-chloro-10,11,13,14,15,20-hexahydro-21-methoxy-11,11-dimethyl-] |
| 794 | 1580 | COc1cc2ncnc3c2cc1OCC(=O)NC(CC(C)C)C(=O)NCCc1ccc(Cl)cc1N3 (stereo not drawn) [Compound 141, 4,6-ethanediylidene-8H-pyrimido[4,5-b][6,1,9,12]benzoxatriazacyclohexadecine-9,12-dione, 18-chloro-10,11,13,14,15,20-hexahydro-21-methoxy-11-(2-methylpropyl)-] |
| 100 | 631 | COc1cc2ncnc3c2cc1OCC(=O)NC(C(C)O)C(=O)NCCc1ccc(Cl)cc1N3 (stereo not drawn) [Compound 142, 4,6-ethanediylidene-8H-pyrimido[4,5-b][6,1,9,12]benzoxatriazacyclohexadecine-9,12-dione, 18-chloro-10,11,13,14,15,20-hexahydro-11-(1-hydroxyethyl)-21-methoxy-] |
| 158 | 126 | COc1cc2ncnc3c2cc1OCCCC(=O)NC(C)(C)C(=O)NCc1ccc(Cl)cc1N3 [Compound 144, 4,6-ethanediylidenepyrimido[4,5-b][6,1,11,14]benzoxatriazacycloheptadecine-11,14(8H,15H)-dione, 19-chloro-9,10,12,13,16,21-hexahydro-22-methoxy-13,13-dimethyl-] |
| 200 | 631 | COc1cc2ncnc3c2cc1OCCCC(=O)NC(C(C)O)C(=O)NCc1ccc(Cl)cc1N3 (stereo not drawn) [Compound 146, 4,6-ethanediylidenepyrimido[4,5-b][6,1,11,14]benzoxatriazacycloheptadecine-11,14(8H,15H)-dione, 19-chloro-9,10,12,13,16,21-hexahydro-13-(1-hydroxyethyl)-22-methoxy-] |
| 251 | 10000 | COc1cc2ncnc3c2cc1OCC(=O)NC(CO)C(=O)NCCc1ccc(Cl)cc1N3 (stereo not drawn) [Compound 148, 4,6-ethanediylidene-8H-pyrimido[4,5-b][6,1,9,12]benzoxatriazacyclohexadecine-9,12-dione, 18-chloro-10,11,13,14,15,20-hexahydro-11-(hydroxymethyl)-21-methoxy-] |
| 3160 | 10000 | COc1cc2ncnc3c2cc1OCC(=O)NCC(=O)NCc1ccc(Cl)cc1N3 [Compound 151, 4,6-ethenopyrimido[4,5-b][6,1,9,12]benzoxatriazacyclopentadecine-9,12(8H,13H)-dione, 17-chloro-10,11,14,19-tetrahydro-20-methoxy-] |
| 31.6 | 10000 | COc1cc2ncnc3c2cc1OCC(=O)NCCC(=O)NCc1ccc(Cl)cc1N3 [Compound 152, 4,6-etheno-8H-pyrimido[4,5-b][6,1,9,13]benzoxatriazacyclohexadecine-9,13(10H,14H)-dione, 18-chloro-11,12,15,20-tetrahydro-21-methoxy-] |

Source: patent publication US8394786B2, “Quinazoline derivatives” (Janssen Pharmaceutica N.V., priority 2003, dated 2013)
